For orientation: IC50 means the concentration at which inhibition is half-maximal.

For test [1], the system named is PC3M cell line that stably expresses GFP-PTB to mark PNCs. Kind of test: High content assay for PNC detection (reduction of PNC prevalence). It is filed as cell-based, human. Conditions: Homo sapiens, PC-3M; Table 4; PC3M GFP-PTB cells, 16 hrs incubation. An excerpt:
The quantitative output for this assay is the reduction of PNC prevalence. The PNC can be detected in living cells by the expression of a green fluorescent protein (GFP) tagged to the PNC localized protein, PTB. A PC3M cell line was used that stably expresses GFP-PTB to mark PNCs. This method eliminates the need for immunofluorescent staining.
The IN Cell Analyzer 1000 automated fluorescent imaging system (GE Healthcare, Piscataway, N.J.) was used for automated image acquisition. […] The instrument acquired images of each well in a 1536-well plate with a laser-based autofocus system. To score PNC prevalence in a high-content throughput, the Multi-Target Analysis (MTA) algorithm (GE Healthcare, Investigator v3.5) to identify individual cells and granules (PNCs) within these cells was used. The nucleus was segmented via a region growing method (50 μm^2 minimum area) with light shading and noise removal to allow “touching” nuclei to be separated. Granules in the nucleus (PNCs) were segmented using a multiscale top hat method, which measures granules of 1 to 2 μm in size and used a smart masking method to identify the boundaries of each segmented granule. The algorithm was optimized and validated using positive and negative controls (50 μM camptothecin and DMSO, respectively). In particular, the MTA algorithm allows for the identification of multiple subcellular compartments and organelles (or granules) within those compartments. In this instance, the algorithm's capability to identify objects within the same color channel that only differ in size or fluorescent intensity was utilized. Also, the algorithm allows for building complex hierarchical classification systems, using output measures within the algorithm to filter and define subpopulations. For this particular assay, PNC-positive cells were scored when 1 to 3 PNC granules were detected per nucleus. Cells that contained 0 granules were scored as PNC negative, and cells with >3 granules were assumed to be false positives (very few cells have more than 3 PNCs in one focus plane), and were also scored as PNC negative.

For test [2], the system named is PC3M reporter cell line stably expressing the PTB-GFP. Kind of test: ATP quantitation assay (ATPLite). It is filed as cell-based, human. The conditions noted are these: Table 4, PC3M cells, 24 hrs incubation; for IC50: Homo sapiens, PC-3M. How it is done: This follow-up assay was conducted to measure the effect of compounds on cell health by measuring ATP levels (ATPLite™). ATPLite™ is an ATP monitoring system based on firefly (Photinus pyralis) luciferase. The level of ATP in a metabolically active cell is a general marker for its viability. ATP levels are often reduced during necrosis or apoptosis. In this assay, the luciferase enzyme catalyzes the conversion of the added substrate D-luciferin to oxyluciferin and light with ATP. Thus, the emitted light is proportional to the ATP concentration. For this assay, the highly metastatic PC3M reporter cell line stably expressing the PTB-GFP was provided by Professor Sui Huang of Northwestern University. The media and cell culture reagents were purchased from Invitrogen (Carlsbad, Calif.), ATPLite™ came from PerkinElmer.
Background: In ATP-based viability assays light output follows the ATP content of the culture.

`COc1ccc(Cn2c(-c3ccccc3)c(-c3ccccc3)c3c(=N)n(C4CCOCC4)cnc32)cc1` [Compound 59]: the IC50 in test [1] turned out to be 0.118 µM; in test [2], 24.1 µM.

On to `N=c1c2c(-c3ccccc3)c(-c3ccccc3)n(CC3CCCCC3)c2ncn1C1CCOCC1` [Compound 60], for which the IC50 was 0.118 µM in test [1] and 24.1 µM in test [2].

`N=c1c2c(-c3ccccc3)c(-c3ccccc3)n(Cc3ccccc3)c2ncn1CCC1CCC(O)CC1` (stereo not drawn) [Compound 61]: the IC50 in test [1] was determined as 0.118 µM; in test [2] it was 24.1 µM.

In the case of `N=c1c2c(-c3ccccc3)c(-c3ccccc3)n(CCc3ccccc3)c2ncn1C[C@H]1CCCC[C@@H]1O` [Compound 62], the IC50 worked out at 0.148 µM in test [1] and 24.1 µM in test [2].

Consider `N=c1c2c(-c3ccccc3)c(-c3ccccc3)n(Cc3ccccc3)c2ncn1C1CCCC[C@H]1O` (stereo partly drawn) [Compound 63], for which the IC50 in test [1] was 0.148 µM; in test [2] it was 19.2 µM.

With `N=c1c2c(-c3ccccc3)c(-c3ccccc3)n(CC3CC3)c2ncn1C1CCOCC1` [Compound 64], the values for the IC50 in test [1] and in test [2] were 0.187 µM and 38.3 µM, respectively.

As to `CO[C@H]1CC[C@H](n2cnc3c(c(-c4ccccc4)c(-c4ccccc4)n3CCc3ccccc3)c2=N)CC1` [Compound 65], the half-maximal inhibitory concentration (IC50) in test [1] worked out at 0.235 µM; in test [2] it was 19.2 µM.

Regarding `N=c1c2c(-c3ccccc3)c(-c3ccccc3)n(Cc3ccccc3)c2ncn1C1CCCC[C@H]1CO` (stereo partly drawn) [Compound 66], the IC50 in test [1] came out at 0.296 µM; in test [2] it was 76.4 µM.

With `N=c1c2c(-c3ccccc3)c(-c3ccccc3)n(CCc3ccccc3)c2ncn1CCC1CCC(O)CC1` (stereo not drawn) [Compound 67], the IC50 came out at 0.296 µM in test [1] and 24.1 µM in test [2].

As to `N=c1c2c(-c3ccccc3)c(-c3ccccc3)n(CCc3ccccc3)c2ncn1C1CCCC[C@H]1O` (stereo partly drawn) [Compound 68], the IC50 in test [1] worked out at 0.296 µM; in test [2], 38.3 µM.

In the case of `CO[C@H]1CC[C@H](n2cnc3c(c(-c4ccccc4)c(-c4ccccc4)n3Cc3ccc(OC(F)(F)F)cc3)c2=N)CC1` [Compound 69], the IC50 turned out to be 0.372 µM in test [1] and 19.2 µM in test [2].

For `N=c1c2c(-c3ccccc3)c(-c3ccccc3)n(Cc3ccc(OC(F)(F)F)cc3)c2ncn1[C@H]1CC[C@H](O)CC1` [Compound 70], the IC50 turned out to be 0.372 µM in test [1] and 24.1 µM in test [2].

`N=c1c2c(-c3ccccc3)c(-c3ccccc3)n(CCc3ccccc3)c2ncn1C1CCOCC1` [Compound 71]: the IC50 in test [1] was found to be 0.372 µM; in test [2], 121 µM.

Regarding `N=c1c2c(-c3ccccc3)c(-c3ccccc3)n(Cc3ccccc3)c2ncn1CCNc1ccncc1` [Compound 72], the half-maximal inhibitory concentration (IC50) in test [1] stood at 0.469 µM; in test [2], 24.1 µM.

On to `N=c1c2c(-c3ccccc3)c(-c3ccccc3)n(Cc3ccccc3)c2ncn1C[C@@H]1CCCC[C@H]1O` [Compound 73], for which the IC50 in test [1] was found to be 0.59 µM; in test [2] it was 24.1 µM.

As for `N=c1c2c(-c3ccccc3)c(-c3ccccc3)n(Cc3ccc(OC(F)(F)F)cc3)c2ncn1CCCO` [Compound 74], the IC50 in test [1] stood at 0.743 µM; in test [2], 24.1 µM.

With `N=c1c2c(-c3ccccc3)c(-c3ccccc3)n(Cc3ccc(OC(F)(F)F)cc3)c2ncn1C1CCOCC1` [Compound 75], the IC50 in test [1] was found to be 0.935 µM; in test [2] it was 24.1 µM.

With `COc1ccc(Cn2c(-c3ccccc3)c(-c3ccccc3)c3c(=N)n(CC4CCOCC4)cnc32)cc1` [Compound 76], the values for the IC50 in test [1] and in test [2] were 0.935 µM and 48.2 µM, respectively.

Take `COc1ccc(Cn2c(-c3ccccc3)c(-c3ccccc3)c3c(=N)n(CCCO)cnc32)cc1` [Compound 77]: the results for the IC50 in test [1] and in test [2] were 1.18 µM and 96.1 µM, respectively.

On to `N=c1c2c(-c3ccccc3)c(-c3ccccc3)n(CC3CCCCC3)c2ncn1[C@H]1CC[C@H](O)CC1` [Compound 78], for which the values for the IC50 in test [1] and in test [2] were 1.48 µM and 30.4 µM, respectively.

In the case of `N=c1c2c(-c3ccccc3)c(-c3ccccc3)n(Cc3ccc(S(N)(=O)=O)cc3)c2ncn1CC1CCOCC1` [Compound 79], the values for the IC50 in test [1] and in test [2] were 1.87 µM and 383 µM, respectively.

As for `N=c1c2c(-c3ccccc3)c(-c3ccccc3)n(CC3CCCCC3)c2ncn1C1CCCC[C@H]1O` (stereo partly drawn) [Compound 80], the IC50 stood at 1.87 µM in test [1] and 21.5 µM in test [2].

`N=c1c2c(-c3ccccc3)c(-c3ccccc3)n(CC3CC3)c2ncn1CCCO` [Compound 81]: the IC50 in test [1] turned out to be 1.87 µM; in test [2], 76.4 µM.

For the molecule `N=c1c2c(-c3ccccc3)cn(Cc3ccccc3)c2ncn1C1CCN(Cc2ccccc2)CC1` [Compound 82], the IC50 was 2.35 µM in test [1] and 30.4 µM in test [2].

As to `C[C@H]([C@@H](O)c1ccccc1)n1cnc2c(c(-c3ccccc3)c(-c3ccccc3)n2Cc2ccccc2)c1=N` [Compound 83], the values for the IC50 in test [1] and in test [2] were 2.96 µM and 24.1 µM, respectively.

Consider `N=c1c2c(-c3ccccc3)c(-c3ccccc3)n(Cc3ccc(OC(F)(F)F)cc3)c2ncn1[C@H]1CC[C@@H](O)CC1` [Compound 84], for which the values for the IC50 in test [1] and in test [2] were 2.96 µM and 24.1 µM, respectively.

`N=c1c2c(-c3ccccc3)c(-c3ccccc3)n(Cc3ccccc3)c2ncn1CC1CCOC1` (stereo not drawn) [Compound 85]: the figures for the IC50 in test [1] and in test [2] were 2.96 µM and 24.1 µM, respectively.

With `N=c1c2c(-c3ccccc3)c(-c3ccccc3)n(CC3CCCCC3)c2ncn1[C@H]1CC[C@@H](O)CC1` [Compound 86], the values for the IC50 in test [1] and in test [2] were 3.72 µM and 24.1 µM, respectively.

Regarding `N=c1c2c(-c3ccccc3)c(-c3ccccc3)n(CCc3ccccc3)c2ncn1CC1CCOC1` (stereo not drawn) [Compound 87], the IC50 stood at 4.69 µM in test [1] and 60.7 µM in test [2].

For the molecule `N=c1c2c(-c3ccccc3)c(-c3ccccc3)n(Cc3ccccc3)c2ncn1CC1CCOCC1` [Compound 88], the IC50 was 4.69 µM in test [1] and 30.4 µM in test [2].

Turning to `N=c1c2c(-c3ccc4c(c3)OCO4)c(-c3ccc4c(c3)OCO4)n(Cc3ccccc3)c2ncn1C1CCOCC1` [Compound 89], the IC50 in test [1] was found to be 5.9 µM; in test [2], 24.1 µM.

Take `N=c1c2c(-c3ccccc3)c(-c3ccccc3)n(CCc3ccccc3)c2ncn1CC1CCOCC1` [Compound 90]: the concentration for half-maximal inhibition (IC50) in test [1] turned out to be 5.9 µM; in test [2], 76.4 µM.

As to `N=c1c2c(-c3ccccc3)c(-c3ccccc3)n(Cc3ccc(OC(F)(F)F)cc3)c2ncn1CC1CCOCC1` [Compound 91], the values for the IC50 in test [1] and in test [2] were 5.9 µM and 30.4 µM, respectively.

As for `COc1ccc(-c2c(-c3ccc(OC)cc3)n(Cc3ccccc3)c3ncn([C@H]4CC[C@H](OC)CC4)c(=N)c23)cc1` [Compound 93], the IC50 in test [1] stood at 7.43 µM; in test [2] it was 60.7 µM.

As to `COc1ccc(-c2c(-c3ccc(OC)cc3)n(Cc3ccccc3)c3ncn([C@H]4CC[C@H](O)CC4)c(=N)c23)cc1` [Compound 94], the IC50 is 9.35 µM in test [1] and 24.1 µM in test [2].

As to `N=c1c2c(-c3ccccc3)c(-c3ccccc3)n(CC3CCCCC3)c2ncn1CC1CCOCC1` [Compound 95], the values for the IC50 in test [1] and in test [2] were 11.8 µM and 24.1 µM, respectively.

Regarding `N=c1c2c(-c3ccccc3)c(-c3ccccc3)n(Cc3ccccc3)c2ncn1CCCN1CCN(c2ccccc2)CC1` [Compound 96], the IC50 in test [1] amounted to 11.8 µM; in test [2], 30.4 µM.

Take `COc1ccc(Cn2c(-c3ccccc3)c(-c3ccccc3)c3c(=N)n(N4CCOCC4)cnc32)cc1` [Compound 98]: the IC50 in test [1] was 14.8 µM; in test [2], 121 µM.

Turning to `N=c1c2c(-c3ccccc3)cn(Cc3ccccc3)c2ncn1C(CO)(CO)CO` [Compound 99], in test [1], the IC50 amounted to 14.8 µM. Moreover, the “ATP IC50(μM)” value in test [2] is “inactive”.

Regarding `COc1ccc(-c2c(-c3ccc(OC)cc3)n(Cc3ccccc3)c3ncn(C4CCCC[C@H]4O)c(=N)c23)cc1` (stereo partly drawn) [Compound 100], the half-maximal inhibitory concentration (IC50) in test [1] is 14.8 µM; in test [2], 48.2 µM.

With `N=c1c2c(-c3ccccc3)c(-c3ccccc3)n(CC3CCCCC3)c2ncn1C[C@H]1CCCC[C@@H]1O` [Compound 101], the figures for the half-maximal inhibitory concentration (IC50) in test [1] and in test [2] were 14.8 µM and 24.1 µM, respectively.

On to `N=c1c2c(-c3ccccc3)c(-c3ccccc3)n(Cc3ccco3)c2ncn1Cc1ccccc1` [Compound 102], for which the half-inhibitory concentration (IC50) in test [1] is 15.8 µM; in test [2] it was 25.7 µM.
